# Laboratory results reported in patent US7582282B2, “Methods for optimizing clinical responsiveness to methotrexate therapy using metabolite profiling and pharmacogenetics” (Prometheus Laboratories Inc., priority 2003, dated 2009).
# Experiments:
# [1] = human, in vivo
# Method: Red blood cell methotrexate polyglutamate concentrations were measured as described further below using HPLC-fluorometry with post-column photo-oxidation technique. The technologist in charge of quantification of red blood cell methotrexate polyglutamates was blinded to patients' clinical information.
# Mobile phase B consisted of acetonitrile.
# Red blood cell long-chain MTXPG concentrations were measured as described previously using an HPLC-fluorometry procedure with post-column photo-oxidation technique (Dervieux, Clin Chem. (2003)). The technologist performing the quantification of RBC MTXPGs (up to the penta-order of glutamation) was blinded to patient's information.
# The quantification limit of the analytical method is 5 nmol/L and the detection limit is 2 nmol/L packed RBC (for all MTXPG species) (Dervieux, Clin Chem. (2003)).
# [2] = system: patients with rheumatoid arthritis; assay: Cross-sectional clinical study of methotrexate effects in patients with rheumatoid arthritis (joint counts, VAS, mHAQ; regression analyses); format: in vivo, human; set-up: key to Physician's assessment of disease activity visual analog score (VAS), mean / Physician assessment of disease activity VAS: 10 cm visual analog scale; key to Modified health assessment questionnaire (mHAQ) score, mean / Modified Health assessment questionnaire: mean of 8 items, each 0 = without any difficulty to 3 = unable to do
# Method: In this cross-sectional study, eligibility was limited to patients of at least 18 years of age who met the revised criteria of the American Rheumatism Association for Rheumatoid Arthritis and had received low dose methotrexate therapy for at least three months. Some patients were on additional medications for rheumatoid arthritis, including low dose corticosteroids (<10 mg day), and folic acid supplementation (1 mg/day). The Institutional Review Board approved the study, and patient consent was obtained.
# Patient characteristics were collected at the time of the enrollment in the clinical study. Clinical assessment included a tender joint count, a swollen joint count, a Physician's Assessment of Disease Activity (using a 10 cm visual analog scale (VAS)), and a Patient's Assessment of Physical Function using the modified-Health Assessment Questionnaire (m-HAQ). The mHAQ is the average score obtained on eight items addressed to the patient to assess loss of typical lifestyle activities. Scoring of items within each is from 0 (without any difficulty) to 3 (unable to do). The eight items are as follows: 1: dress yourself, 2: get in and out of bed, 3: lift a full glass to your mouth, 4: walk, 5: wash and dry entire body, 6: bend down and pick up clothing, 7: turn faucets on and off, and 8: get in and out of a car. In addition to these standards, the American College of Rheumatology measures, and a Physician's Assessment of Response to methotrexate scored on a 10 cm visual analogue scale (VAS) were also used. In this visual analogue scale, “0” is defined as a perfect response, while “10” is defined as no response. Based on these definitions, a physician's assessment of response to MTX below group median corresponds to a perception of response above group median. Clinical data were collected on case report forms at the time of the clinical visit, and the physician and each patient were blinded to all laboratory parameters throughout the entire study. Furthermore, using the VAS for the physician's assessment of disease activity and the physician's assessment of response to methotrexate, the highest 25th percentiles for disease activity or response to methotrexate were calculated. Chi-square analysis was applied, and odds ratios (OR) were calculated.
# Genotyping was performed as follows: Whole blood (EDTA) was drawn the day of the clinical visit; genomic DNA was extracted using a Generation Purification Capture Column (Gentra Systems, Inc; Minneapolis, Minn.). The RFC-1 G80A polymorphism, which results in a […] substitution at codon 27 of RFC-1, was detected using the PCR RFLP method described in Chango et al., supra, 2000. The ATIC C347G polymorphism, which results in a threonine to serine substitution at position 116 of ATIC, was determined with a real time TaqMan allelic discrimination assay performed using fluorogenic 3′-minor groove binding probes. The forward primer sequence was 5′-[…]-3′ (SEQ ID NO:3), and the reverse primer sequence was 5′-[…]-3′ (SEQ ID NO:4). Allelic discrimination was performed using the wild-type fluorescent probe 5′-FAM-[…]-MGB 3′ (SEQ ID NO:5) and the mutant fluorescent probe 5′-VIC-[…]-MGB 3′ (SEQ ID NO:6). Final reaction conditions were as follows: 900 nM of each primer, 200 nM of each probe, 5 ng genomic DNA, and a 1×TaqMan master mix (Applied Biosystems; Foster City, Calif.). PCR reactions were incubated for one 2-minute cycle at 50° C., a 10-minute cycle at 95° C., and 40 cycles of 95° C. for 15 seconds, 58° C. for 15 seconds, and finally 60° C. for 45 seconds. Statistical analyses were performed using Statistica (StatSoft Inc., Tulsa, Okla.) essentially as follows. […]
# [3] = Red blood cell MTXPG concentrations in 14 polyarthritis patients on low dose weekly methotrexate (HPLC-fluorometry)
# Method: The liquid chromatograph was an Agilent 1100 HPLC chemstation system composed of a quaternary pump, a system controller, an autoinjector, a sample cooler kept at 4° C., and a fluorometer. […] Methotrexate polyglutamates were detected with post-column derivatization using a photochemical reactor unit (Aura Industries, New York, N.Y.) equipped with an elongated 254 nm low pressure mercury ultraviolet lamp and containing a 1/16″ outer diameter TEFLON™ tubing (internal diameter 0.25 mm) assembled as a knitted coil and connected on-line between the analytical column and fluorometer. […] Methotrexate polyglutamate photolytic products were measured at an excitation wavelength of 274 nm and an emission wavelength of 464 nm, unless otherwise indicated. The retention times described herein were measured from time of injection to time of detection at the post-reactor unit fluorometer.
# HPLC separation was performed on a 25 cm×4.6 mm X Terra MS C18 column (Waters, Milford, Mass.), 5 μm particle size, protected by a guard column. […] Methotrexate polyglutamate photolytic products were analyzed at an excitation wavelength of 274 nm and an emission wavelength of 464 nm. […]
# Results were expressed as nmol/L packed red blood cells, and patient results were expressed as an average plus or minus the standard error of the mean (±SEM). […]
# [4] = multivariate regression with RFC-1, ATIC, TSER genotypes, adjusted for corticosteroids and folic acid
# [5] = 108 patients on methotrexate, mean ± SEM
# [6] = 108 patients on methotrexate, median (range)
# [7] = multivariate linear regression adjusted for corticosteroids and folic acid
structure (smiles),measurement,setting,value
"CN(Cc1cnc2nc(N)nc(N)c2n1)c1ccc(C(=O)N[C@@H](CCC(=O)N[C@@H](CCC(=O)N[C@@H](CCC(=O)O)C(=O)O)C(=O)O)C(=O)O)cc1 [MTXPG3, 4-amino-10-methylpteroyltri-glutamic acid]",Median RBC long-chain MTXPGs concentration (MTXPG3),[1],40 nmol/L
same,"RBC long-chain MTXPGs concentration (MTXPG3), range",[1],<5 to 131 nmol/L
same,Logistic regression estimate for MTXPG3: probability of total number of tender and swollen joints below group median,"[2]; FIG. 4A, model with MTXPG3 only, estimate ± standard error",0.022±0.008
same,Logistic regression estimate for MTXPG3: probability of physician assessment of Disease activity VAS below group median,"[2]; FIG. 4B, model with MTXPG3 only",0.024±0.009
same,Logistic regression estimate for MTXPG3: probability of physician assessment of response to methotrexate VAS below group median,"[2]; FIG. 4C, model with MTXPG3 only",0.034±0.01
same,Logistic regression estimate for MTXPG3: probability of mHAQ below group median,"[2]; FIG. 4D, model with MTXPG3 only",0.014±0.008
same,Logistic regression estimate for MTXPG3: probability of total number of tender and swollen joints below group median,"[2]; FIG. 5A, model with MTXPG3 and RFC-1 G80A genotype",0.022±0.009
same,Logistic regression estimate for MTXPG3: probability of physician assessment of Disease activity VAS below group median,"[2]; FIG. 5B, model with MTXPG3 and RFC-1 G80A genotype",0.024±0.009
same,Logistic regression estimate for MTXPG3: probability of physician assessment of response to methotrexate VAS below group median,"[2]; FIG. 5C, model with MTXPG3 and RFC-1 G80A genotype",0.033±0.010
same,Logistic regression estimate for MTXPG3: probability of mHAQ below group median,"[2]; FIG. 5D, model with MTXPG3 and RFC-1 G80A genotype",0.015±0.008
same,Logistic regression estimate for MTXPG3: probability of total number of tender and swollen joints below group median,"[2]; FIG. 6A, model with MTXPG3 and ATIC C347G genotype",0.024±0.009
same,Logistic regression estimate for MTXPG3: probability of physician assessment of Disease activity VAS below group median,"[2]; FIG. 6B, model with MTXPG3 and ATIC C347G genotype",0.025±0.009
same,Logistic regression estimate for MTXPG3: probability of physician assessment of response to methotrexate VAS below group median,"[2]; FIG. 6C, model with MTXPG3 and ATIC C347G genotype",0.038±0.010
same,Logistic regression estimate for MTXPG3: probability of mHAQ below group median,"[2]; FIG. 6D, model with MTXPG3 and ATIC C347G genotype",0.013±0.008
same,Logistic regression estimate for MTXPG3: probability of total number of tender and swollen joints below group median,"[2]; FIG. 7A, model with MTXPG3 and PGENi (RFC-1, ATIC)",0.023±0.009
same,Logistic regression estimate for MTXPG3: probability of physician assessment of Disease activity VAS below group median,"[2]; FIG. 7B, model with MTXPG3 and PGENi (RFC-1, ATIC)",0.025±0.009
same,Logistic regression estimate for MTXPG3: probability of physician assessment of response to methotrexate VAS below group median,"[2]; FIG. 7C, model with MTXPG3 and PGENi (RFC-1, ATIC)",0.036±0.010
same,Logistic regression estimate for MTXPG3: probability of mHAQ below group median,"[2]; FIG. 7D, model with MTXPG3 and PGENi (RFC-1, ATIC)",0.014±0.009
same,"MTXPG3 estimate, logistic regression: probability of physician's assessment of patient's response to MTX VAS≦2 cm",[2]; FIG. 12B,0.035±0.01
same,Estimate ± SEM of RBC MTXPG3 (nmol/L) for Modified Health assessment questionnaire,[2]; [4],−0.002 ± 0.002
same,Estimate ± SEM of RBC MTXPG3 (nmol/L) for Number of Swollen joints,[2]; [4],−0.035 ± 0.019
same,Estimate ± SEM of RBC MTXPG3 (nmol/L) for Number of Tender joints,[2]; [4],−0.047 ± 0.23
same,Estimate ± SEM of RBC MTXPG3 (nmol/L) for Patient's Global assessment of disease activity VAS,[2]; [4],−0.004 ± 0.009
same,Estimate ± SEM of RBC MTXPG3 (nmol/L) for Physician's Global assessment of disease activity VAS,[2]; [4],−0.025 ± 0.008
same,Estimate ± SEM of RBC MTXPG3 (nmol/L) for Physician's assessment of Patient's response to MTX VAS,[2]; [4],−0.026 ± 0.007
same,Fold more likely to have clinical responsiveness to the chemotherapy above average,[2]; patients with RBC MTXPG3 levels above 60 nmol/L,12.7 fold
same,Average share of total methotrexate polyglutamates,"[3]; 14 patients, RBC",55%
"CN(Cc1cnc2nc(N)nc(N)c2n1)c1ccc(C(=O)N[C@@H](CCC(=O)O)C(=O)O)cc1 [Methotrexate, 4-amino-10-methylpteroylglutamic acid]",Modified Health assessment questionnaire,[2]; [5],0.55 ± 0.05
same,Number of Swollen joints (maximum 22),[2]; [5],4.0 ± 0.5
same,Number of Tender joints (maximum 22),[2]; [5],5.0 ± 0.6
same,Patient assessment of disease activity VAS,[2]; [5],4.1 ± 0.2
same,Physician assessment of disease activity VAS,[2]; [5],3.5 ± 0.2
same,Modified Health Assessment Questionnaire (mHAQ score),[2]; [6],0.375 (0-2)
same,Number of swollen and tender joints (total number),[2]; [6],5.5 (0-44)
same,Physician assessment of disease activity (10 cm VAS score),[2]; [6],2.9 (0.1-8.4)
same,Physician assessment of response to Methotrexate VAS,"[2]; 108 patients, mean ± SEM",2.7 ± 0.2
same,Physician assessment of response to methotrexate (10 cm VAS score),"[2]; 108 patients, median (range), 0 perfect response, 10 no response",2.1 (0.1-8.3)
same,Mean number of swollen joints,[2]; PGENi=0 (n=58 patients),5.5±0.8
same,"Modified health assessment questionnaire (mHAQ) score, mean",[2]; PGENi=0 (n=58 patients),0.68±0.07
same,"Physician's assessment of disease activity visual analog score (VAS), mean",[2]; PGENi=0 (n=58 patients),4.1±0.3
same,"Physician's assessment of response to MTX, mean",[2]; PGENi=0 (n=58 patients),3.0±0.2
same,Mean number of tender joints,"[2]; PGENi=0 (n=58 patients), PGENi from RFC-1, ATIC, TS homozygosity",6.4±0.9
same,Mean number of swollen joints,[2]; PGENi=1 to 3 (n=50 patients),2.3±0.4
same,Mean number of tender joints,[2]; PGENi=1 to 3 (n=50 patients),3.3±0.9
same,"Modified health assessment questionnaire (mHAQ) score, mean",[2]; PGENi=1 to 3 (n=50 patients),0.39±0.06
same,"Physician's assessment of disease activity visual analog score (VAS), mean",[2]; PGENi=1 to 3 (n=50 patients),2.6±0.3
same,"Physician's assessment of response to MTX, mean",[2]; PGENi=1 to 3 (n=50 patients),2.3±0.3
same,Estimate ± SEM of methotrexate dose (mg/week) for Modified Health assessment questionnaire,[2]; [7],−0.017 ± 0.009; p = 0.09
same,Estimate ± SEM of methotrexate dose (mg/week) for Number of Tender joints,[2]; [7],−0.17 ± 0.12; p = 0.15
same,Estimate ± SEM of methotrexate dose (mg/week) for Physician assessment of disease activity VAS,[2]; [7],−0.088 ± 0.044; p = 0.06
same,Fold more likely to have a good response to methotrexate therapy,[2]; patients with a PGENi between 1-3 (sum of homozygous variant genotypes),3.7 fold
same,Fold more likely to have Physician's Assessment of Patient's Response to Methotrexate VAS≦2 cm (good response),"[2]; pharmacogenetic index above 2 (index 0 to 5, variant alleles counted)",4.7 fold
same,RBC concentration in a patient sample,[3]; one patient on 17.5 mg weekly methotrexate for at least 3 months,27 nmol/L
